Experimental data published in article PMC10517971, “An inverse agonist of orphan receptor GPR61 acts by a G protein-competitive allosteric mechanism” (Nature Communications, 2023).
Where “and” joins values, the source holds several entries; their conditions need not be identical. Equal entries are not always repeated.

Tests used:
[1] = molecular target: T1, human GPR61 (Homo sapiens, UniProt Q9BZJ8); test: Functional cAMP assay (HTRF), stable CHO TREx human GPR61 cells; format: cell-based
T1 construct: expressed in transfected cells; host or cells: CHO-K1, transient (Fugene6)
Source text: (§1) The human GPR61 (reference sequence NM_031936.4) cDNA was synthesized and subcloned into pcDNA5/FRT/TO (Thermo Fisher, Pittsburgh, PA). The pcDNA5/FRT/TO/ human GPR61 plasmid was then transfected into the Flp-In™-CHO Cell Line (Thermo Fisher, Pittsburgh, PA) and a doxycycline-inducible clonal cell line was selected (CHO TREx hGPR61 WT). Sequences encoding untagged and HiBit/hemagglutinin (HA)-tagged versions of the wild-type human GPR61 were synthesized and cloned into pcDNA3.1. The HiBit ([…]) and HA ([…]) tags were sequentially included after the N-terminal initiator methionine. Four single amino acid substitutions (N137A, R140A, V288A, N345A) were then introduced in the untagged and tagged human GPR61 constructs using site-specific mutagenesis. The nucleotide sequences of all receptor constructs were confirmed by automated DNA sequencing.
A homogeneous Time-Resolved Fluorescence (HTRF) assay (Perkin Elmer, Dynamic2 kit #) was used to assess receptor basal and inverse agonist activity at human GPR61, GPR62, and GPR101. For routine inverse agonist screening frozen CHO TREx human GPR61, GPR62 and GPR101 cells were used. […] Data were analyzed using the ratio of fluorescence intensity at 620 and 665 nm for each well, extrapolated from the cAMP standard curve to express data as nM cAMP for each well. […]

[2] = molecular target: T2, human GPR61 R140A (Homo sapiens, UniProt Q9BZJ8, R140A); test: Functional cAMP assay (HTRF), transiently transfected CHO-K1 cells, GPR61 R140A mutant; format: cell-based
T2 construct: expressed in transfected cells; host or cells: CHO-K1, transient (Fugene6)
Source text: as §1
Parental CHO-K1 cells were maintained at 37 °C in a humidified environment (5% CO2) and grown in Dulbecco’s Modified Eagle Medium (DMEM) F-12 media (Gibco, 11320033) supplemented with 10% FBS, 1% Glutamax (Gibco, 35050061) and 100units/ml penicillin and streptomycin (Gibco, 15140122. Cells were dissociated using a cell dissociation solution (Gibco, 13151-014), counted, and resuspended in complete culture media without antibiotics. Cells were then transiently transfected using Fugene6 (Promega) in a 384-well plate format (Corning, 3570). For each well, 7500 cells were transfected with 5 ng of receptor plasmid, 20 ng of carrier DNA (Promega, PAE4881) and 0.075 μl Fugene6 in a final volume of 25 μl. […] Surface and total receptor expression was measured separately by adding 25 μl per well of the extracellular (Promega, PRN2421) and lytic (Promega, PRN3040) assay solutions, respectively. Plates were incubated for 10 min at room temperature on a shaker and luciferase activity was measured using an EnVision plate reader (Perkin Elmer, Chicago, IL). […]
A homogeneous Time-Resolved Fluorescence (HTRF) assay (Perkin Elmer, Dynamic2 kit #) was used to assess receptor basal and inverse agonist activity at human GPR61, GPR62, and GPR101. […]

T2 sequence (Q9BZJ8 whole entry R140A): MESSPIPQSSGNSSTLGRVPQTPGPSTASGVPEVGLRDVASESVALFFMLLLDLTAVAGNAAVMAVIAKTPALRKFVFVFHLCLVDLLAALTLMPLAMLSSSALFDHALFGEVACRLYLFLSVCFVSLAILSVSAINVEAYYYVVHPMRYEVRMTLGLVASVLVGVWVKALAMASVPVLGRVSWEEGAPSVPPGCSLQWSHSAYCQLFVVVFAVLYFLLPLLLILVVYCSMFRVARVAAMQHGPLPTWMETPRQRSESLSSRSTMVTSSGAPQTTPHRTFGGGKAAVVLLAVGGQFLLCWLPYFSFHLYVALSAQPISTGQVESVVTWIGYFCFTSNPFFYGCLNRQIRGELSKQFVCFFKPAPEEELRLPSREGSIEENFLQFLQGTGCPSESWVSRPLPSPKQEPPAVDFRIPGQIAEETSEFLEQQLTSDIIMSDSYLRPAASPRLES
T1 sequence (Q9BZJ8 whole entry): as the sequence (Q9BZJ8 whole entry R140A) above, with A140R counted along it

CCOc1cc(C)nc(N(CCOC)S(=O)(=O)c2ccc(NCc3c(F)cncc3F)nc2OC)n1 [Compound 1]
potency against GPR61 relative to GPR62 and GPR101 ([1]; GPR61 vs GPR62 and GPR101, peer review reply): roughly 1000 fold
IC50 ([1]; stable CHO TREx cells, Supplementary Table 2): 0.021 µM
IC50 ([2]; Fig. 3e table, untagged, read-out: GPR61 cAMP IC50 (95% CI), R140A Untagged): 7.88 µM
cAMP response (Figure 3e source data) ([2]; HiBit R140A, concentration -8.5): 4.06 and 2.30 and 2.96 and 2.25 and 3.21
sensitivity of the receptor to inverse agonism in the cAMP assay ([2]; R140A mutant vs wild-type): less sensitive
